Experimental data taken from patent publication US20230346735A1, “Nutritional Composition Comprising Carnitine and Method for Treating or Preventing an Infection in a Mammal” (priority 2020, published 2023).
Marks after values point to notes of the source that are not given here.

Columns and labels:
[1] = test system: catalase; test: Antioxidant capacity: catalase in exercised rats; format: in vivo, rat; conditions: 6 weeks
Experimental: Fifty-six (56) Male Wistar rats that were 8-week old were obtained. The rats were reared at the temperature of 22 ± 2° C., the humidity of 55 ± 5%, and with a 12-hrs light-12-hrs dark cycle. All procedures involving rats were conducted in strict compliance with the relevant laws, the Animal Welfare Act, Public Health Services Policy, and guidelines established by the Institutional Animal Care and Use Committee of the Institute of the contracted University which completed the study.
After a week of the adaptation period, the rats were divided into eight equal groups containing seven rats each. The initial body weights of the rats were similar in all the groups (214.53 grams ± 4.67; P > 0.05).
Groups 1 and 2 were not subjected to an exercise routine. Groups 3-8 were subjected to an exercise regimen consisting of a week training period with an incremental exercise capacity described below. After the week training period the exercise regimen followed was each rat in Groups 3-8 were subjected to 6 weeks of running at 25 m/min during 45 min […]. […] These correspond to 0, 250, 500, 1000, 2000 and 4000 mg per day for humans, respectively.
The exercised rats were subjected to treadmill exercise on a motorized rodent treadmill (Commat Limited, Ankara, Turkey). The treadmill contained a stimulus grid at the back end of the treadmill giving an electric shock when the animal placed its paw on the grid. […] To eliminate the diurnal variations, all exercise tests were applied during the same time of the day. The week of training period was provided as pre-training practice for the animals to get familiar with the treadmill equipment and handling. In doing so, the rats in the exercise training groups were accustomed by treadmill exercise over 5 days such that: (i) 1st day, 10 m/min for 10 min, (ii) 2nd day, 20 m/min for 10 min, (iii) 3rd day, 25 m/min for 10 min, (iv) 4th day, 25 m/min for 20 min and (v) 5th day, 25 m/min for 30 min. After the training period, the rats in treadmill exercise groups ran on the treadmill 25 m/min for 45 min/ per day and five days per week for 6 weeks according to the protocol described by Sahin et al. Capsaicinoids Improve the Consequences of Physical Activity. Toxicol Rep. 2018;5:598-607, which is hereby incorporated by reference.
The exercise regimen was used to induce an inflammation and oxidative stress conditions. […] The results of malondialdehyde, superoxide dismutase, catalase, and glutathione peroxidase for each rat group are shown in TABLE 2.

[2] = test system: ACE-2; format: in vivo, rat
Experimental: Groups 1 and 2 were not subjected to an exercise routine. Groups 3-8 were subjected to an exercise regimen consisting of a week training period with an incremental exercise capacity described below. After the week training period the exercise regimen followed was each rat in Groups 3-8 were subjected to 6 weeks of running at 25 m/min during 45 min every day. […] These correspond to 0, 250, 500, 1000, 2000 and 4000 mg per day for humans, respectively.
After the 6-week exercise regimen was completed, muscle, lung, plasma and liver tissue samples were taken from these rats. The ACE-2 analysis of the tissue samples are subjected to the following test.
To determine the protein accumulation in the liver, muscle and lung samples, a Western Blotting test was used. Each of the tissue samples of the same group were pooled, homogenized, and sonicated in lysis buffer supplemented with 1X protease and phosphatase inhibitor cocktail (#5872, Cell Signaling). Total protein content was detected with Qubit 2.0 Fluorometer according to the manufacturer’s protocol (Invitrogen, Life Technologies Corporation, Carlsbad, CA, USA). Equal amounts of protein (20 µg) were size-fractionated using any-kD Mini-Protean TGX gel electrophoresis and then transferred to a nitrocellulose membrane using the Trans-Blot Turbo Transfer System (Bio-Rad, Life Sciences Research). Thereafter, membranes were blocked in 5% nonfat milk in Tris-buffered saline (TBS) containing 0.1% Tween (TBS-T; blocking solution) for 1 h at room temperature, washed in TBS-T, and incubated overnight with ACE-2 (Abcam, Cambridge, UK). The following day, membranes were washed with TBS-T and then incubated with horseradish peroxidase-conjugated goat anti-rabbit (Abcam, Cambridge, UK) or goat anti-mouse (Abcam, Cambridge, UK) secondary antibody (diluted 1:1000) for 1 h. Individual blots were performed at least three times. Protein loading was controlled by stripping and re-probing the nitrocellulose membrane with an anti-β-actin antibody (Abcam, Cambridge, UK). Protein levels were analyzed densitometrically using an image analysis system (Image J; National Institute of Health, Bethesda, MD, USA), corrected with values determined on β-actin blots and expressed as relative values compared with the control group.
To determine the mRNA expression levels of ACE-2 in the liver, lung and muscle samples a total RNA extraction and specific mRNA quantification was conducted by reverse transcription-polymerase chain reaction (RT-qPCR). Gene expressions were done by quantitative polymerase chain reaction (qPCR). […]

[3] = test system: ACE-1; test: Rat plasma serum ELISA, ACE-1; format: in vivo; conditions: exercised rats, FIG. 5A
[4] = test system: ACE-2; test: Human study, serum ELISA, ACE-2; format: in vivo
Experimental: (§1) A human study was run with a total of 80 healthy male and female subjects ranging from 21 to 65 years of age, who were active (i.e. 30 minutes per day of moderate activity, 3 days per week) are randomized into two groups. […] Seventy-three subjects completed the trial and biomarker data were analyzed from the sera of the 73 completers. Sera were collected for analysis of C-Reactive Protein (CRP), ACE 1, ACE 2, TMPRSS 2, the Tumor Necrosis Factor alpha (TNF-alpha), and Furin at baseline in the beginning of the trial, at week 5 and 48 hr after an exercise challenge as described (Clinicaltrials.gov NCT04420377). The exercise challenge serves as surrogate to the inflammation stimulus.
(§2) To obtain human sera, venous blood was extracted by venipuncture of the antecubital vein using a 21-gauge syringe and collected into a 10 mL EDTA vacutainer tube (BD Vacutainer®, Becton, Dickinson and Company, Franklin Lakes, NJ) by a certified phlebotomist. […] Human ACE-1, ACE-2, TMPRSS2, Furin, CRP and TNF-alpha protein levels were assessed using commercially available ELISA kits, according the manufacturer recommendations, ACE-1 (R&D systems Inc., Minneapolis, MN, USA), ACE-2 (RayBiotech inc., Peachtree Corners, GA), TMPRSS2 (Novus Biologicals, Littleton, CO), CRP (R&D Systems Inc., Minneapolis, MN), TNF-alpha (Novus Biologicals, Littleton, CO), and Furin (Sigma Aldrich, St. Louis, MO). […]

[5] = test system: Furin; test: Human study, serum ELISA, Furin; format: in vivo; conditions: 2 g daily, 5 weeks, 48 hours after exercise challenge, versus placebo
Experimental: as §1, §2

[6] = test system: TNF-alpha; test: Human study, serum ELISA, TNF-alpha; format: in vivo
Experimental: as §1, §2

[7] = test system: Calu-3 cells; format: cell-based, human; conditions: Calu-3, 50 uM to 10 mM, 24 h, 48 h or 72 h
Experimental: Calu-3 cells were maintained in 50% DMEM (Dulbecco’s Modified Eagle Medium) + 50% Ham’s F12 media supplemented with 10% FBS (fetal bovine serum) and 1% penicillin/streptomycin. Vero E6 cells were maintained in DMEM media supplemented with 10% FBS and 1% penicillin/streptomycin.
Calu-3 seeded in a 96-well plate (30,000 cells) were stimulated with 50 uM, 100 uM, 250 uM, 500 uM, 1 mM and 10 mM Carnitine alone. At 24 h, 48 h or 72 h post stimulation, media was removed and cells were subjected to a standard MTT assay.

Compound: C[N+](C)(C)C[C@H](O)CC(=O)[O-] [L-carnitine]
- CAT ([1]; Car200: 200 mg/kg oral gavage, no exercise): 147.19±2.01^de U/mg protein
- CAT ([1]; Ex+Car25: exercise, 25 mg/kg oral gavage): 144.55±3.21^de U/mg protein
- CAT ([1]; Ex+Car50: exercise, 50 mg/kg oral gavage): 152.72±2.50^cd U/mg protein
- CAT ([1]; Ex+Car100: exercise, 100 mg/kg oral gavage): 162.11±1.97^bc U/mg protein
- CAT ([1]; Ex+Car200: exercise, 200 mg/kg oral gavage): 170.77±2.57^b U/mg protein
- CAT ([1]; Ex+Car400: exercise, 400 mg/kg oral gavage): 186.10±2.50^a U/mg protein
- dose of maximum effect on ACE-2, TMPRSS2 and Furin levels ([2]; exercised rats, oral, 6 weeks): 200 mg/kg
- ACE-2 mRNA levels ([2]; exercised rats, tissues, versus exercise control): dose-dependent decrease
- ACE-2 protein level ([2]; exercised rats, western blotting): return to the baseline control
- ACE-2 levels ([2]; rats without exercise (inflammation), 200 mg/kg): does not affect these receptors
- serum ACE-1 [3]: near normal levels
- ACE-2 serum levels ([4]; 2 g daily, 5 weeks, 48 hours after exercise challenge, versus placebo): significant decrease
- decrease in ACE-2 ([4]; group A, from baseline compared to Wk5, p=0.046): 8%
- Furin serum levels [5]: significant decrease
- TNF-alpha levels ([6]; human serum, any time point, b137): No change occurred
- TNF-α ([6]; human, group A, Wk5 compared to BL, p<0.01): lower
- cytotoxicity (MTT) [7]: did not show any cytotoxic properties
